# Experimental data as given in patent US10703765B2 (priority 2014, dated 2020).
# Structures can show the parent of a compound that is named as a salt. Where two headings read alike, the source gives them in different places.
# Molecular target: human σ1 receptor (Homo sapiens, UniProt Q99720)
# Experiment: biochemical
# Type: binding
# Set-up: μ and σ1 dual binding: key to the marks not given beside the values
# [1] = read-out: μ and σ1 dual binding
# [2] = combined class from Ki-σ1 (human σ1 receptor, A1) and Ki-μ (human μ-opioid receptor, A2) radioligand binding
# Chain of human σ1 receptor (Q99720 whole entry): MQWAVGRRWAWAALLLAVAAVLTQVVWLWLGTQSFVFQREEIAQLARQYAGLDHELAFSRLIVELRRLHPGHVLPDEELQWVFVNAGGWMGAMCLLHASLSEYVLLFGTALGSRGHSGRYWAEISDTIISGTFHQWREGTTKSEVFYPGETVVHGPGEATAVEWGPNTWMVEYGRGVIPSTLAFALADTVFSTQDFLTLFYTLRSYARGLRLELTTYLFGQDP
SMILES,Ki [1] [nM],other results
"CC1OC2(CCN(CCc3ccccc3)CC2)CN(c2ccc3ncsc3c2)C1=O (centres unmarked) [Example 203, 4-(benzo[d]thiazol-6-yl)-2-methyl-9-phenethyl-1-oxa-4,9-diazaspiro[5.5]undecan-3-one]",–,μ and σ1 dual binding: ++
"CC1OC2(CCN(CCc3ccccc3)CC2)CN(c2nc3ccccc3s2)C1=O.Cl (centres unmarked) [Example 204, 4-(benzo[d]thiazol-2-yl)-2-methyl-9-phenethyl-1-oxa-4,9-diazaspiro[5.5]undecan-3-one hydrochloride]",–,μ and σ1 dual binding: ++
"CC1OC2(CCN(CCc3ccccc3)CC2)CN(c2ccncc2)C1=O.Cl (centres unmarked) [Example 205, 2-methyl-9-phenethyl-4-(pyridin-4-yl)-1-oxa-4,9-diazaspiro[5.5]undecan-3-one hydrochloride]",–,μ and σ1 dual binding: ++
"COc1ccccc1N1CC2(CCN(CCc3ccccc3)CC2)OC(C)C1=O (centres unmarked) [Example 206, 4-(2-methoxyphenyl)-2-methyl-9-phenethyl-1-oxa-4,9-diazaspiro[5.5]undecan-3-one hydrochloride]",< 100,–
"CC1OC2(CCN(CCc3ccccc3)CC2)CN(c2cccc(C(F)(F)F)n2)C1=O (centres unmarked) [Example 207, 2-methyl-9-phenethyl-4-(6-(trifluoromethyl)pyridin-2-yl)-1-oxa-4,9-diazaspiro[5.5]undecan-3-one]",< 100,–
"CC1OC2(CCN(CCc3ccccc3)CC2)CN(c2ncccc2F)C1=O (centres unmarked) [Example 208, 4-(3-fluoropyridin-2-yl)-2-methyl-9-phenethyl-1-oxa-4,9-diazaspiro[5.5]undecan-3-one]",< 100,–
"CC1OC2(CCN(CCc3ccccc3)CC2)CN(c2nccs2)C1=O (centres unmarked) [Example 209, 2-methyl-9-phenethyl-4-(thiazol-2-yl)-1-oxa-4,9-diazaspiro[5.5]undecan-3-one hydrochloride]",< 500,–
"CC1OC2(CCN(CCc3ccccc3)CC2)CN(c2cnn(C)c2)C1=O (centres unmarked) [Example 210, 2-methyl-4-(1-methyl-1H-pyrazol-4-yl)-9-phenethyl-1-oxa-4,9-diazaspiro[5.5]undecan-3-one]",–,μ and σ1 dual binding [2]: ++
"COc1cccc(N2CC3(CCN(CCc4ccccc4)CC3)OC(C)C2=O)n1 (centres unmarked) [Example 211, 4-(6-methoxypyridin-2-yl)-2-methyl-9-phenethyl-1-oxa-4,9-diazaspiro[5.5]undecan-3-one hydrochloride]",–,Ki: < 500 nM
"CC1OC2(CCN(CCc3ccccc3)CC2)CN(c2ccc(C(F)(F)F)nc2)C1=O (centres unmarked) [Example 212, 2-methyl-9-phenethyl-4-(6-(trifluoromethyl)pyridin-3-yl)-1-oxa-4,9-diazaspiro[5.5]undecan-3-one hydrochloride]",> 500,–
"CC1OC2(CCN(CCc3ccccc3)CC2)CN(c2cccnc2F)C1=O (centres unmarked) [Example 213, 4-(2-fluoropyridin-3-yl)-2-methyl-9-phenethyl-1-oxa-4,9-diazaspiro[5.5]undecan-3-one]",–,Ki: < 100 nM
"CC1OC2(CCN(CCc3ccccc3)CC2)CN(c2cnccc2C(F)(F)F)C1=O (centres unmarked) [Example 214, 2-methyl-9-phenethyl-4-(4-(trifluoromethyl)pyridin-3-yl)-1-oxa-4,9-diazaspiro[5.5]undecan-3-one hydrochloride]",< 100,–
"CC1OC2(CCN(CCc3ccccc3)CC2)CN(c2cccnc2C(F)(F)F)C1=O (centres unmarked) [Example 215, 2-methyl-9-phenethyl-4-(2-(trifluoromethyl)pyridin-3-yl)-1-oxa-4,9-diazaspiro[5.5]undecan-3-one hydrochloride]",< 500,–
"CC1OC2(CCN(CCc3ccccc3)CC2)CN(c2cncc(F)c2)C1=O (centres unmarked) [Example 216, 4-(5-fluoropyridin-3-yl)-2-methyl-9-phenethyl-1-oxa-4,9-diazaspiro[5.5]undecan-3-one hydrochloride]",< 500,–
"CC1OC2(CCN(CCc3ccccc3)CC2)CN(c2cncc(C(F)(F)F)c2)C1=O (centres unmarked) [Example 217, 2-methyl-9-phenethyl-4-(5-(trifluoromethyl)pyridin-3-yl)-1-oxa-4,9-diazaspiro[5.5]undecan-3-one hydrochloride]",< 500,–
"CC1OC2(CCN(CCc3ccccc3)CC2)CN(c2ncccc2C(F)(F)F)C1=O (centres unmarked) [Example 218, 2-methyl-9-phenethyl-4-(3-(trifluoromethyl)pyridin-2-yl)-1-oxa-4,9-diazaspiro[5.5]undecan-3-one]",< 500,–
"O=C1N(c2cccnc2C(F)(F)F)CC2(CCN(CCc3ccccc3F)CC2)OC12CC2 [Example 219, 8-(2-fluorophenethyl)-12-(2-(trifluoromethyl)pyridin-3-yl)-4-oxa-8,12-diazadispiro[2.1.5.3]tridecan-13-one]",< 500,–
"O=C1N(c2ncccc2C(F)(F)F)CC2(CCN(CCc3ccccc3F)CC2)OC12CC2 [Example 220, 8-(2-fluorophenethyl)-12-(3-(trifluoromethyl)pyridin-2-yl)-4-oxa-8,12-diazadispiro[2.1.5.3]tridecan-13-one hydrochloride]",< 500,–
"CC1OC2(CCN(CCc3ccccc3F)CC2)CN(c2ncccc2C(F)(F)F)C1=O (centres unmarked) [Example 221, 9-(2-fluorophenethyl)-2-methyl-4-(3-(trifluoromethyl)pyridin-2-yl)-1-oxa-4,9-diazaspiro[5.5]undecan-3-one]",< 500,–

SMILES,Ki [1] [nM],other results
"C[C@H]1OC2(CCN(CCc3ccccc3F)CC2)CN(c2ncccc2C(F)(F)F)C1=O [Example 222a, (R)-9-(2-fluorophenethyl)-2-methyl-4-(3-(trifluoromethyl)pyridin-2-yl)-1-oxa-4,9-diazaspiro[5.5]undecan-3-one]",< 500,–
"C[C@@H]1OC2(CCN(CCc3ccccc3F)CC2)CN(c2ncccc2C(F)(F)F)C1=O [Example 222b, (S)-9-(2-fluorophenethyl)-2-methyl-4-(3-(trifluoromethyl)pyridin-2-yl)-1-oxa-4,9-diazaspiro[5.5]undecan-3-one]",> 500,–
"O=C1N(c2cnccc2C(F)(F)F)CC2(CCN(CCc3ccccc3F)CC2)OC12CC2 [Example 223, 8-(2-fluorophenethyl)-12-(4-(trifluoromethyl)pyridin-3-yl)-4-oxa-8,12-diazadispiro[2.1.5.3]tridecan-13-one hydrochloride]",< 100,–
"O=C1N(c2ccccc2F)CC2(CCN(CCc3ccccc3)CC2)OC12CC2 [Example 224, 12-(2-fluorophenyl)-8-phenethyl-4-oxa-8,12-diazadispiro[2.1.5.3]tridecan-13-one]",< 100,–
"O=C1N(c2ccccc2)CC2(CCN(CCc3ccccc3)CC2)OC12CC2 [Example 225, 8-phenethyl-12-phenyl-4-oxa-8,12-diazadispiro[2.1.5.3]tridecan-13-one]",< 100,–
"CC1OC2(CCN(CCc3cccc(N)c3)CC2)CN(c2ccccc2)C1=O (centres unmarked) [Example 226, 9-(3-aminophenethyl)-2-methyl-4-phenyl-1-oxa-4,9-diazaspiro[5.5]undecan-3-one]",< 100,–
"CC1OC2(CCN(CCc3ccccc3)CC2)CN(c2cccc(N)c2)C1=O (centres unmarked) [Example 227, 4-(3-aminophenyl)-2-methyl-9-phenethyl-1-oxa-4,9-diazaspiro[5.5]undecan-3-one]",> 500,–
"CC1OC2(CCN(CCc3ccc(N)cc3)CC2)CN(c2ccccc2)C1=O (centres unmarked) [Example 228, 9-(4-aminophenethyl)-2-methyl-4-phenyl-1-oxa-4,9-diazaspiro[5.5]undecan-3-one]",–,Ki: < 500 nM
"CC1OC2(CCN(CCc3ccccc3N)CC2)CN(c2ccccc2)C1=O (centres unmarked) [Example 229, 9-(2-aminophenethyl)-2-methyl-4-phenyl-1-oxa-4,9-diazaspiro[5.5]undecan-3-one]",–,Ki: < 100 nM
"CC1OC2(CCN(CCc3ccc(N)cn3)CC2)CN(c2ccccc2F)C1=O (centres unmarked) [Example 230, 9-(2-(5-aminopyridin-2-yl)ethyl)-4-(2-fluorophenyl)-2-methyl-1-oxa-4,9-diazaspiro[5.5]undecan-3-one]",–,μ and σ1 dual binding [2]: ++
"Nc1cccc(CCN2CCC3(CC2)CN(c2ccccc2)C(=O)C2(CC2)O3)c1 [Example 231, 8-(3-aminophenethyl)-12-phenyl-4-oxa-8,12-diazadispiro[2.1.5.3]tridecan-13-one]",> 500,–
"CC1OC2(CCN(CCc3ncccc3N)CC2)CN(c2ccccc2F)C1=O (centres unmarked) [Example 232, 9-(2-(3-aminopyridin-2-yl)ethyl)-4-(2-fluorophenyl)-2-methyl-1-oxa-4,9-diazaspiro[5.5]undecan-3-one]",–,μ and σ1 dual binding [2]: ++
"Nc1cccc(CN2CC3(CCN(CCc4ccccc4)CC3)OCC2=O)c1 [Example 233, 4-(3-aminobenzyl)-9-phenethyl-1-oxa-4,9-diazaspiro[5.5]undecan-3-one hydrochloride]",< 500,–
"CC1OC2(CCN(CCc3cccnc3N)CC2)CN(c2ccccc2)C1=O (centres unmarked) [Example 234, 9-(2-(2-aminopyridin-3-yl)ethyl)-2-methyl-4-phenyl-1-oxa-4,9-diazaspiro[5.5]undecan-3-one hydrochloride]",–,Ki: < 500 nM
"Nc1cccc(CCN2CCC3(CC2)CN(Cc2ccc(C(F)(F)F)cn2)C(=O)CO3)c1 [Example 235, 9-(3-aminophenethyl)-4-((5-(trifluoromethyl)pyridin-2-yl)methyl)-1-oxa-4,9-diazaspiro[5.5]undecan-3-one]",> 500,–
"CC1OC2(CCN(CCc3ccc(N)cn3)CC2)CN(c2ccccc2)C1=O (centres unmarked) [Example 236, 9-(2-(5-aminopyridin-2-yl)ethyl)-2-methyl-4-phenyl-1-oxa-4,9-diazaspiro[5.5]undecan-3-one]",> 500,–
"CC1OC2(CCN(CCn3ccc(N)n3)CC2)CN(c2ccccc2)C1=O (centres unmarked) [Example 237, 9-(2-(3-amino-1H-pyrazol-1-yl)ethyl)-2-methyl-4-phenyl-1-oxa-4,9-diazaspiro[5.5]undecan-3-one hydrochloride]",> 500,–
"CC(C)C1OC2(CCN(CCc3cccnc3N)CC2)CN(c2ccccc2F)C1=O (centres unmarked) [Example 238, 9-(2-(2-aminopyridin-3-yl)ethyl)-4-(2-fluorophenyl)-2-isopropyl-1-oxa-4,9-diazaspiro[5.5]undecan-3-one dihydrochloride]",–,Ki: < 100 nM
"Nc1cccc(CCN2CCC3(CC2)CN(Cc2ccc(C(F)(F)F)cn2)C(=O)C2(CC2)O3)c1 [Example 239, 8-(3-aminophenethyl)-12-{[5-(trifluoromethyl)pyridin-2-yl]methyl}-4-oxa-8,12-diazadispiro[2.1.5.3]tridecan-13-one]",> 500,–
